Values of other authors in patent US7041008B2, “Golf ball with sulfur cured inner component” (priority 1993, dated 2006).

Question: With “2,2′-bis(t-butylperoxy)-di-iso-propylbenzene” as the molecule, how does the “Acute oral LD50” value read?
Answer: Its value is >23,000 mg/kg.

Question: With CC1CC(C)(C)CC(OOC(C)(C)C)(OOC(C)(C)C)C1 (stereo not drawn) [1,1-bis(t-butylperoxy)-3,3,5-trimethyl cyclohexane] as the molecule, how does the “Acute oral LD50” value read?
Answer: The value was >13,000 mg/kg.

Question: Which “Acute oral LD50” value does the source give for CC(C)(C)OOC(C)(C)CCC(C)(C)OOC(C)(C)C [2,5-dimethyl-2,5-di(t-butylperoxy) hexane] here?
Answer: The value was >32,000 mg/kg.

Question: With C1CN(SSN2CCOCC2)CCO1 [4,4″-dithiodimorpholine] as the molecule, how does the “Acute oral LD50” value read?
Answer: Its value is 5,600 mg/kg.

Question: Which “Acute oral LD50” value does the source give for O=C1CCCCCN1SSN1CCCCCC1=O [N,N′-caprolactum disulfide] here?
Answer: Its value is 3,620 mg/kg.

Question: Which “Acute oral LD50” value does the source give for O=C(OOC(=O)c1ccccc1)c1ccccc1 [benzoyl peroxide] here?
Answer: The value was >5,000 mg/kg.

Question: Which “Acute oral LD50” value does the source give for CC(C)(OOC(C)(C)c1ccccc1)c1ccccc1 [dicumyl peroxide] here?
Answer: Its value is 4,100 mg/kg.

Question: With CCCCOC(=O)CCC(C)(OOC(C)(C)C)OOC(C)(C)C [n-butyl 4,4-bis(t-butyl-peroxy) valerate] as the molecule, how does the “Acute oral LD50” value read?
Answer: Its value is 5,000 mg/kg.

Question: For CC(C)(C)OOC(=O)c1ccccc1 [t-butyl perbenzoate], which “Acute oral LD50” value is on record?
Answer: The value was >3,600 mg/kg.
